pIC50: −log10 of the molar value.
Target: T1, human TLR9 (Homo sapiens, UniProt Q9NR96)
T1 construct: host or cells: HEK-Blue cells
T1 sequence (Q9NR96 26-1032): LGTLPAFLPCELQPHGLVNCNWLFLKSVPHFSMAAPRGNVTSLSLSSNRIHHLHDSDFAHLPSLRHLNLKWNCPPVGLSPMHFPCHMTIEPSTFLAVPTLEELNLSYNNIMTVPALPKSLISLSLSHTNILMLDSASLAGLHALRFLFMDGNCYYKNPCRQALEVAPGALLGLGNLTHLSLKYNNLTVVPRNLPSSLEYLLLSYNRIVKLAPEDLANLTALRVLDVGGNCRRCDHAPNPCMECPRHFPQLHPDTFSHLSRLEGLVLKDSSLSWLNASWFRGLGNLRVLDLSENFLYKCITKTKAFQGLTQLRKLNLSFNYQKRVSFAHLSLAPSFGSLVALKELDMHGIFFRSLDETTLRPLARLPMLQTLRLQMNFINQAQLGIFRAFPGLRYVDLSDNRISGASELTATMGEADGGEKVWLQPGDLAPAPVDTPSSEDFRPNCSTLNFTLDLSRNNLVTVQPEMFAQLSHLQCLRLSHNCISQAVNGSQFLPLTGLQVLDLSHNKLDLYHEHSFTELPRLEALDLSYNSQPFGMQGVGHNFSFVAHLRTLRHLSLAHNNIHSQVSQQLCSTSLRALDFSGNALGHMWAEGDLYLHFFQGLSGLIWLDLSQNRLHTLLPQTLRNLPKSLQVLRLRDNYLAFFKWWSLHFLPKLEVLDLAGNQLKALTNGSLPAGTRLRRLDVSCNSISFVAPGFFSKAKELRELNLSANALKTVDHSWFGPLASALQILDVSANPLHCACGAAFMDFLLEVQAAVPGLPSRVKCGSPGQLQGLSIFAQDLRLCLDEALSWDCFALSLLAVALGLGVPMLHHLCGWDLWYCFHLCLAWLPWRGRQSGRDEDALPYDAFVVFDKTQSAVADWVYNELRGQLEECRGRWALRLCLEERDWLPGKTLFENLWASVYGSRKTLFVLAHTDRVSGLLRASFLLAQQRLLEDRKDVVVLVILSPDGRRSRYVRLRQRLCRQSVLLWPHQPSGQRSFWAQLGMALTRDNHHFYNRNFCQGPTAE
Test: TLR9 inhibition reporter assay (HEK-Blue SEAP)
Assay type: cell-based
Conditions: HEK-Blue cells overexpressing human TLR9, ODN2006 5 nM, 22 hour incubation
Outline: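 Screening used HEK-Blue cells overexpressing one human TLR (7, 8 or 9) and an IFN-β minimal promoter–NF-κB/AP-1 SEAP construct. Stimulation lasted 22 h at 37 °C with receptor-specific agonist: gardiquimod, R848 or ODN2006 at 7.5 μM, 15.9 μM and 5 nM.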

pIC50 | SMILES
5.35 | COc1cc(-c2cc3[nH]c(=O)n(C4CCC(N5CCC6(CC5)COC6)CC4)c3cc2C(C)C)cn2ncnc12 (centres unmarked) [Example 240, 1-(4-(2-oxa-7-azaspiro[3.5]nonan-7-yl)cyclohexyl)-6-isopropyl-5-(8-methoxy-[1,2,4]triazolo[1,5-a]pyridin-6-yl)-1,3-dihydro-2H-benzo[d]imidazol-2-one]
< 4.30 | COc1cc(-c2cc3[nH]c(=O)n(C4CCC(N5CCNC(=O)C5)CC4)c3cc2C(C)C)cn2ncnc12 (centres unmarked) [Example 243, 6-isopropyl-5-(8-methoxy-[1,2,4]triazolo[1,5-a]pyridin-6-yl)-1-(4-(3-oxopiperazin-1-yl)cyclohexyl)-1,3-dihydro-2H-benzo[d]imidazol-2-one]
